The source of these data is patent publication US11904004B2, “Anti-CD277 antibodies” (INSTITUT NATIONAL DE LA SANTE ET DE LA RECHERCHE MEDICALE …, priority 2010, dated 2024).

Holding throughout (type): cell-based, human
Experiment [1] deals with primary AML blasts. As to the kind of experiment: Chromium release assay, lysis of primary AML blasts by Vγ9Vδ2 T cells. Conditions: E:T 30:1; ZOL 45 μM O/N, 20.1 mAb 10 μg/ml, BrHpp 2 μM. As for the experimental part: (§1) Effector γδ T cells were established and maintained as previously described^28. PBMC from HV were stimulated with ZOL (1 μm) and rhlL-2 (200 IU/ml) at Day 0. From Day 5, rhIL-2 was renewed every two days and cells were kept at 1.5×10^6/m1 for 15 days. NK cells were isolated using EASYSEP® Human NK cell enrichment kit (StemCell Technologies). The purity of γδ T cells and NK cells was determined by flow cytometry and respectively greater than 80% and 98%. The Burkitt lymphoma cell line, DAUDI, the human AML cell line, U937, and the erythroleukemic cell line, K562, were obtained from the American Type Culture Collection and cultured (0.5×10^6/ml) in RPMI 1640 medium with 10% FCS. BTN3A Knock-down HEK293FT cells (sh #284; clone #30) were provided by E.Scotet (Inserm U892, Nantes), cultured and transfected with BTN3A1, BTN3A2, BTN3A3 mutated cDNA-containing plasmids, as described^23.
(§2) 0.5×10^6 target cells were incubated with 50 pCi of ^51Cr (Perkin-Elmer) for AML blasts and 10 pCi for DAUDI and K562 cells for 90 minutes and mixed with effector cells in a Effector:Target (E:T) ratio of […]. After 4 hours of incubation at 37° C., 50p1 supernatant of each sample was transferred in LUMA® plates and radioactivity was determined by a gamma counter. The percentage of specific lysis was calculated using the formula [(experimental−spontaneous release/total−spontaneous release)×100] and expressed as the mean of triplicate.

The subject of experiment [2] is primary AML blasts. As to the kind of experiment: Chromium release assay, lysis of primary AML blasts by NK cells. As for the experimental part: as §1, with “BTN3A Knock-down HEK293FT cells (sh #284; clone #30) were provided by E.Scotet (Inserm U892, Nantes), cultured and transfected with BTN3A1, BTN3A2, BTN3A3 mutated cDNA-containing plasmids, as described^23.” left out
as §2

The test system of another experiment is Vγ9Vδ2 T cells. Nature of the experiment: Activation / CD107 degranulation of expanded Vγ9Vδ2 T cells (phosphoantigen or anti-CD3 stimulation). To be noted: increasing doses of BrHPP alone. On the procedure:
We used for γδ T cells labelling in purity test after expansion, anti-CD3 PE-Cy7 and anti-Vδ2 FITC mAb (BD Pharmingen). For CD277 characterisation in different subsets PBMC were incubated with the following antibodies and molecules: anti-CD3 PE-Cy5 (BD Pharmingen), anti-CD4 PB (BD Pharmingen), anti-CD8 PB (BD Pharmingen), anti-Vδ2 FITC (BD Pharmingen), anti-CD27 APC ALEXA FLUOR® 750 (CALTAG Laboratory), anti-CCR7 PECy7 (BD Pharmingen), anti-CD28 PE (Beckman Coulter), anti-CD45RA ECD (Beckman Coulter), LIVE/DEAD® Fixable Dead Cell Stain Kit (L34957, Invitrogen) and anti-CD277 labelled with ALEXA FLUOR® 647 (Protein labelling Kit ALEXA FLUOR® 647, Molecular Probes, Invitrogen). […] All samples were measured on FACSCANTO® or FACSARIA® flow cytometers (BD Biosciences) using FACSDIVA® software. […]
PBMC were plated and stimulated as described in the paragraph: cell lines and expansion of γδ T cells, except cells were stimulated with anti-CD277 mAbs (10 μg/ml); or control isotypes (10 μg/ml); and with or without BrHPP at different concentrations. […] Percentages of Vγ9Vδ2 were measured the first day and the last day of culture as described above. […] Activation of degranulation was measured by CD107 labelling assay as described above.

Experiment [3] concerns immature dendritic cells (iDC). As to the kind of experiment: Apoptosis detection (Annexin V), survival of iDC. Conditions: plastic-coated mAb or GM-CSF, 72-h culture, representative value and range of five experiments. As for the experimental part:
(§3) Blood samples were obtained from 5 healthy volunteers enrolled among the staff members, after informed consent. Monocytes were separated from peripheral blood mononuclear cells, and isolated using the MACS CD14 isolation kit (Miltenyi Biotech, Auburn, Calif. USA). Monocytes were cultured for 5 days with 200 ng/ml of recombinant human GM-CSF and 10 ng/ml recombinant human IL-4 (Schering-Plough Research Institute). These cells were termed immature dendritic cells (iDC). To achieve the stimulation, monocytes and iDC were cultured with 10 ng/ml of LPS, ligand for TLR4, 30 μg/ml of 8848 (Sigma-Aldrich, Milano, Italy), ligand for TLR7/8 and with […] of poly (I:C) (Sigma-Aldrich), ligand for TLR3, and were harvested after 48 h. The cells were cultured in RPMI 1640 supplemented with 10% heat-inactivated FCS, 5 mM L-glutamine and 50 IU/ml penicillin-streptomycin (from here on referred to as complete medium).
(§4) Monocytes and iDC were cultured on plastic coated with anti-BT3 mAb (clone 20.1) or with isotype-matched irrelevant mAb. As control, the cells were stimulated with 20 ng/ml recombinant human GM-CSF (Schering-Plough Research Institute). After three days, cells were harvested, stained with Annexin V-FITC (Bender MedSystems, Wien, Austria) and analysed by flow cytometry.

In another experiment the test system is monocytes. Nature of the experiment: Apoptosis detection (Annexin V), survival of monocytes. To be noted: plastic-coated mAb or 20 ng/ml GM-CSF, 3 days (72 hours), Annexin V; representative value and range of five experiments. On the procedure: as §3, §4

Values joined by “and” are separate entries in the source; they are usually repeats but may differ in a detail not shown here. Equal entries are not always repeated.

With `O=P(O)(O)C(O)(Cn1ccnc1)P(=O)(O)O` [ZOL, Zoledronate, reference compound], the “enhancement of Vγ9Vδ2 T cells lysis of AML blasts compared with BrHpp” value with primary AML blasts [1] is on record as “significantly more efficient”. Also, the “NK cells-mediated AML blasts lysis” value in the experiment on primary AML blasts [2] was “no effect”. For `CC(O)(CBr)CCOP(=O)(O)OP(=O)(O)O` (centres unmarked) [BrHPP], the CD107 expression entry with Vγ9Vδ2 T cells is reported as “up to 40%”. For the molecule “GM-CSF: recombinant human GM-CSF, survival control [reference compound]”, in experiment [3], the “healthy-vital (surviving) iDC” value was 85.97% and 71.01-85.97%. For the same molecule, the “monocytes survived in the absence of endogenous survival factors” value in the experiment on monocytes is 81.22% and 60.41-83%.
